Literature values as cited in publication PMC2946453 (Journal of pharmaceutical and biomedical analysis, 2010).
Like-named read-outs stand apart in the source and are kept apart here. Values belong to the compound of their own block, whether it stands above or below them.

What was measured:
[1] = molecular target: T1, ovine COX-1 (Ovis aries, UniProt P05979); conditions: read-out: Km ovine COX-1; radiolabeled arachidonic acid
T1 sequence (P05979 25-600): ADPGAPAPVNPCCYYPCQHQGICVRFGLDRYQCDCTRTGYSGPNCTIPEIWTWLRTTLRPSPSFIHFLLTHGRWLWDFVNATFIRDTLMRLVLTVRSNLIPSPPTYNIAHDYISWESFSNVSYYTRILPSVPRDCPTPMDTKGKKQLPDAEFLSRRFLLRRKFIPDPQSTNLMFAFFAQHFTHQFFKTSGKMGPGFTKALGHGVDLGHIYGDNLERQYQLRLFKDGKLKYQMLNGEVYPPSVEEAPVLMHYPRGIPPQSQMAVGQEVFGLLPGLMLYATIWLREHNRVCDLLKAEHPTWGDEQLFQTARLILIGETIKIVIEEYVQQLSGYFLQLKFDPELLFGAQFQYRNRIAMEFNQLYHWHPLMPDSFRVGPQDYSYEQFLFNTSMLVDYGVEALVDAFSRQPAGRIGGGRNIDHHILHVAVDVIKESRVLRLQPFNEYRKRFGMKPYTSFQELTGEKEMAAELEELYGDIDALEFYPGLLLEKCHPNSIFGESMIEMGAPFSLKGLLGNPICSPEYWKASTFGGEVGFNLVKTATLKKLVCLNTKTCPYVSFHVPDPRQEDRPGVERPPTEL

[2] = system: COX-1; conditions: read-out: IC50 COX-1; form of COX not mentioned
[3] = system: COX-2; conditions: read-out: IC50 COX-2; form of COX not mentioned
[4] = system: COX-1; conditions: read-out: IC50 COX-1; bovine aortic coronary endothelial cells
[5] = system: human COX-2; conditions: read-out: IC50 COX-2

Km [1]: 3.7 ± 0.5 µM
Structure (SMILES): CCCCC/C=C\C/C=C\C/C=C\C/C=C\CCCC(=O)O [arachidonic acid]

Structure (SMILES): Oc1ccc(/C=C/c2cc(O)cc(O)c2)cc1 [Resveratrol]
IC50 [2]: 0.83 ± 0.44 µM
IC50 [3]: 0.99 ± 0.4 µM

IC50 [5]: […]
Structure (SMILES): COc1ccc2c(c1)c(CC(=O)O)c(C)n2C(=O)c1ccc(Cl)cc1 [Indomethacin]
